Converted amounts (≈) assume the structure as drawn. Read-outs that look alike come from different tables or passages of the source.
Columns and labels:
[1] = tested on: bacterial isolates (clinical isolates and ATCC quality control strains); assay: Minimum Inhibitory Concentrations (MICs) by broth microdilution (CLSI susceptibility testing); type: cell-based
Summary of the method: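 Broth microdilution per CLSI in cation-adjusted Mueller-Hinton broth, 2-fold serial drug dilutions, final inoculum 3×10^5–7×10^5 CFU/mL. Plates incubated 18-24 h at 35 °C in ambient air; MIC is lowest concentration preventing visible growth (OD600 nm<0.05), with levofloxacin and QC strains monitoring performance.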

[2] = tested on: 3 P. aeruginosa strains (APAE001, APAE002, APAE006); assay: Protein binding: fold change in MIC in the presence of 2% HSA and 0.05% AGP, Geomean of 3 strains; type: cell-based, Pseudomonas aeruginosa; settings: MIC in the presence of 2% HSA and 0.05% AGP divided by MIC in the absence; Geomean of 3 P. aeruginosa strains (APAE001, APAE002, APAE006)
Summary of the method: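 MIC against each strain was determined by the standard broth method in cation-adjusted Mueller-Hinton broth with and without 2% HSA plus 0.05% AGP. Fold change is the MIC ratio with/without protein per strain; the value reported is the geometric mean over APAE001, APAE002 and APAE006.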

[3] = APAE1096 is a clinical isolate, broth microdilution, read-out: Minimum Inhibitory Concentrations (MICs) APAE1096
[4] = Pseudomonas aeruginosa, APAE002 is a wildtype lab strain of Pseudomonas aeruginosa known as PAM1020 or PA01, broth microdilution, read-out: Minimum Inhibitory Concentrations (MICs) APAE002
[5] = Pseudomonas aeruginosa, ATCC27853, APAE001 is Pseudomonas aeruginosa ATCC27853, broth microdilution, read-out: Minimum Inhibitory Concentrations (MICs) APAE001
[6] = Pseudomonas aeruginosa, ATCC27853, read-out: Minimum Inhibitory Concentrations (MICs) APAE001
[7] = Pseudomonas aeruginosa, read-out: Minimum Inhibitory Concentrations (MICs) APAE002
[8] = read-out: Minimum Inhibitory Concentrations (MICs) APAE1096

SMILES	MIC [1, 3]	MIC [1, 4]	MIC [1, 5]	Protein Binding PB (Geomean of fold change in MIC) [2]	MIC [1, 6]	MIC [1, 7]	MIC [1, 8]
CNC(C)(C)[C@H](NC(=O)c1ccc(C#CC#CC[C@H](O)CO)cc1)C(=O)NO [Compound 43, 4-((S)-6,7-dihydroxyhepta-1,3-diyn-1-yl)-N—((S)-1-(hydroxyamino)-3-methyl-3-(methylamino)-1-oxobutan-2-yl)benzamide]	1 to 8 µg/mL (≈ 2.58 to 20.6 µM)	< 1 µg/mL	< 1 µg/mL	1.6	–	–	–
CNC(C)(C)[C@H](NC(=O)c1ccc(C#CC#CC[C@@H](O)CO)cc1)C(=O)NO [Compound 44, 4-((R)-6,7-dihydroxyhepta-1,3-diyn-1-yl)-N—((S)-1-(hydroxyamino)-3-methyl-3-(methylamino)-1-oxobutan-2-yl)benzamide]	1 to 8 µg/mL (≈ 2.58 to 20.6 µM)	< 1 µg/mL	< 1 µg/mL	2.0	–	–	–
C[C@@H](N)[C@H](NC(=O)c1ccc(C#CC#CC(O)CO)cc1)C(=O)NO (stereo partly drawn) [Compound 45, N-((2S,3R)-3-amino-1-(hydroxyamino)-1-oxobutan-2-yl)-4-(5,6-dihydroxyhexa-1,3-diyn-1-yl)benzamide]	–	–	–	2.0	1 to 8 µg/mL (≈ 2.9 to 23.2 µM)	< 1 µg/mL	1 to 8 µg/mL (≈ 2.9 to 23.2 µM)
COC(C#CC#Cc1ccc(C(=O)N[C@H](C(=O)NO)C(C)(C)N)cc1)CO (stereo partly drawn) [Compound 47, N—((S)-3-amino-1-(hydroxyamino)-3-methyl-1-oxobutan-2-yl)-4-(6-hydroxy-5-methoxyhexa-1,3-diyn-1-yl)benzamide]	–	–	–	2.6	< 1 µg/mL	< 1 µg/mL	1 to 8 µg/mL (≈ 2.68 to 21.4 µM)
CN[C@H](C)[C@H](NC(=O)c1ccc(C#CC#CCCO)cc1)C(=O)NO [Compound 48, N-((2S,3R)-1-(hydroxyamino)-3-(methylamino)-1-oxobutan-2-yl)-4-(6-hydroxyhexa-1,3-diyn-1-yl)benzamide]	1 to 8 µg/mL (≈ 2.91 to 23.3 µM)	< 1 µg/mL	< 1 µg/mL	2.0	–	–	–
CN[C@H](C)[C@H](NC(=O)c1ccc(C#CC#C[C@H](C)O)cc1)C(=O)NO [Compound 49, N-((2S,3R)-1-(hydroxyamino)-3-(methylamino)-1-oxobutan-2-yl)-4-((S)-5-hydroxyhexa-1,3-diyn-1-yl)benzamide]	1 to 8 µg/mL (≈ 2.91 to 23.3 µM)	< 1 µg/mL	< 1 µg/mL	2.0	–	–	–
CC(O)(C#CC#Cc1ccc(C(=O)N[C@H](C(=O)NO)C(C)(C)N)cc1)CO (stereo partly drawn) [Compound 50, N—((S)-3-amino-1-(hydroxyamino)-3-methyl-1-oxobutan-2-yl)-4-(5,6-dihydroxy-5-methylhexa-1,3-diyn-1-yl)benzamide]	8 to 16 µg/mL (≈ 21.4 to 42.8 µM)	1 to 8 µg/mL (≈ 2.68 to 21.4 µM)	< 1 µg/mL	1.6	–	–	–
CNC(C)(C)[C@H](NC(=O)c1ccc(C#CC#CC(O)CO)cc1)C(=O)NO (stereo partly drawn) [Compound 51, 4-(5,6-dihydroxyhexa-1,3-diyn-1-yl)-N—((S)-1-(hydroxyamino)-3-methyl-3-(methylamino)-1-oxobutan-2-yl)benzamide]	1 to 8 µg/mL (≈ 2.68 to 21.4 µM)	< 1 µg/mL	< 1 µg/mL	1.6	–	–	–
CC(C)(N)[C@H](NC(=O)c1ccc(C#C/C=C/CC(O)CO)cc1)C(=O)NO (stereo partly drawn) [Compound 52, N—((S)-3-amino-1-(hydroxyamino)-3-methyl-1-oxobutan-2-yl)-4-((E)-6,7-dihydroxyhept-3-en-1-yn-1-yl)benzamide]	8 to 16 µg/mL (≈ 21.3 to 42.6 µM)	1 to 8 µg/mL (≈ 2.66 to 21.3 µM)	1 to 8 µg/mL (≈ 2.66 to 21.3 µM)	1.0	–	–	–
C[C@@H](CO)[C@H](O)C#CC#Cc1ccc(C(=O)N[C@H](C(=O)NO)C(C)(C)N)cc1 [Compound 53, N—((S)-3-amino-1-(hydroxyamino)-3-methyl-1-oxobutan-2-yl)-4-((5S,6S)-5,7-dihydroxy-6-methylhepta-1,3-diyn-1-yl)benzamide]	8 to 16 µg/mL (≈ 20.6 to 41.3 µM)	1 to 8 µg/mL (≈ 2.58 to 20.6 µM)	1 to 8 µg/mL (≈ 2.58 to 20.6 µM)	2.0	–	–	–
CC(C)(N)[C@H](NC(=O)c1ccc(C#CC#C[C@@H](O)CCO)cc1)C(=O)NO [Compound 54, N—((S)-3-amino-1-(hydroxyamino)-3-methyl-1-oxobutan-2-yl)-4-((S)-5,7-dihydroxyhepta-1,3-diyn-1-yl)benzamide]	8 to 16 µg/mL (≈ 21.4 to 42.8 µM)	< 1 µg/mL	< 1 µg/mL	2.0	–	–	–
CC(C)(N)[C@H](NC(=O)c1ccc(C#C/C=C/CCO)cc1)C(=O)NO [Compound 55, (S,E)-N-(3-amino-1-(hydroxyamino)-3-methyl-1-oxobutan-2-yl)-4-(6-hydroxyhex-3-en-1-yn-1-yl)benzamide]	1 to 8 µg/mL (≈ 2.9 to 23.2 µM)	< 1 µg/mL	< 1 µg/mL	2.0	–	–	–
CN[C@H](C)[C@H](NC(=O)c1ccc(C#CC#CCO)cc1)C(=O)NO [Compound 56, N-((2S,3R)-1-(hydroxyamino)-3-(methylamino)-1-oxobutan-2-yl)-4-(5-hydroxypenta-1,3-diyn-1-yl)benzamide]	1 to 8 µg/mL (≈ 3.04 to 24.3 µM)	< 1 µg/mL	< 1 µg/mL	2.5	–	–	–
CC(C)(N)[C@H](NC(=O)c1ccc(C#CC#CC2(O)CCC(CO)C2)cc1)C(=O)NO (stereo partly drawn) [Compound 57, N—((S)-3-amino-1-(hydroxyamino)-3-methyl-1-oxobutan-2-yl)-4-((1-hydroxy-3-(hydroxymethyl)cyclopentyl)buta-1,3-diyn-1-yl)benzamide]	1 to 8 µg/mL (≈ 2.42 to 19.3 µM)	< 1 µg/mL	< 1 µg/mL	1.6	–	–	–
CC(C)(N)[C@H](NC(=O)c1ccc(C#C/C=C/C(O)CO)cc1)C(=O)NO (stereo partly drawn) [Compound 58, N—((S)-3-amino-1-(hydroxyamino)-3-methyl-1-oxobutan-2-yl)-4-((E)-5,6-dihydroxyhex-3-en-1-yn-1-yl)benzamide]	8 to 16 µg/mL (≈ 22.1 to 44.3 µM)	1 to 8 µg/mL (≈ 2.77 to 22.1 µM)	1 to 8 µg/mL (≈ 2.77 to 22.1 µM)	1.0	–	–	–
C[C@H](O)C#CC#Cc1ccc(C(=O)N[C@H](C(=O)NO)[C@@H](N)C(F)(F)F)cc1 [Compound 59, N-((2S,3R)-3-amino-4,4,4-trifluoro-1-(hydroxyamino)-1-oxobutan-2-yl)-4-((S)-5-hydroxyhexa-1,3-diyn-1-yl)benzamide]	1 to 8 µg/mL (≈ 2.61 to 20.9 µM)	< 1 µg/mL	1 to 8 µg/mL (≈ 2.61 to 20.9 µM)	3.2	–	–	–
CC(C)(N)[C@H](NC(=O)c1ccc(C#CC#C[C@H](O)CO)cc1)C(=O)NO [Compound 61, N—((S)-3-amino-1-(hydroxyamino)-3-methyl-1-oxobutan-2-yl)-4-((S)-5,6-dihydroxyhexa-1,3-diyn-1-yl)benzamide]	1 to 8 µg/mL (≈ 2.78 to 22.3 µM)	< 1 µg/mL	< 1 µg/mL	1.6	–	–	–
CC(C)(N)[C@H](NC(=O)c1ccc(C#CC#C[C@@H](O)CO)cc1)C(=O)NO [Compound 62, N—((S)-3-amino-1-(hydroxyamino)-3-methyl-1-oxobutan-2-yl)-4-((R)-5,6-dihydroxyhexa-1,3-diyn-1-yl)benzamide]	1 to 8 µg/mL (≈ 2.78 to 22.3 µM)	< 1 µg/mL	< 1 µg/mL	2.0	–	–	–

From US20150175530A1, “ANTIBACTERIAL AGENTS” (priority 2012, published 2015)
